{"source": "paper PMC3984011", "about": "(Journal of medicinal chemistry, 2013)", "assay_type_in_all_cases": "cell-based", "key": {"[1]": {"biological_target": "T1, DAGLβ (diacylglycerol lipase-β) (Mus musculus, UniProt Q91WC9)", "T1 sequence (Q91WC9 1-669)": "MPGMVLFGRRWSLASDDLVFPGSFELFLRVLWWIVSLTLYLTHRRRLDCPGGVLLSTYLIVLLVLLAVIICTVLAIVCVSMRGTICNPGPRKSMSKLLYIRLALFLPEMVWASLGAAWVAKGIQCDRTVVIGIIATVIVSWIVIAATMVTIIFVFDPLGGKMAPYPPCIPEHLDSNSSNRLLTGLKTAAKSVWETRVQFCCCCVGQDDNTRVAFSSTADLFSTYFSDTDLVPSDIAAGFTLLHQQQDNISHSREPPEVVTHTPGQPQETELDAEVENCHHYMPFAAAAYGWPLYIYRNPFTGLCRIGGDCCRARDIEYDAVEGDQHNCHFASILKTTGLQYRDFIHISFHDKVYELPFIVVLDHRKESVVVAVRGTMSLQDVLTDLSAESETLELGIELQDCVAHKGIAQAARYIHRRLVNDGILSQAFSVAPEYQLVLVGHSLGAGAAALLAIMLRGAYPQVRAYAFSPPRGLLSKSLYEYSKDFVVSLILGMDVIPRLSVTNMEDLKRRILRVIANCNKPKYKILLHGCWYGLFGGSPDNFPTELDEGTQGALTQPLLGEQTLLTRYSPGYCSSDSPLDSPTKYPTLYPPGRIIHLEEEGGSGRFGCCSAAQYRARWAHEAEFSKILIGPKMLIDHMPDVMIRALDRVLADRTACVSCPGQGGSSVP", "test": "gel-based competitive ABPP, DAGLβ-HEK293T membrane lysate, probe […]", "settings": "read-out: DAGLβ % inhibition (100 nM)"}, "[2]": {"biological_target": "T1, DAGLβ (diacylglycerol lipase-β)", "test": "competitive ABPP-SILAC in Neuro2A", "settings": "N2a, read-out: % inhibition at 20 μM"}, "[3]": {"biological_target": "T1, DAGLβ (diacylglycerol lipase-β)", "test": "gel-based competitive ABPP, DAGLβ-HEK293T lysate, probe […]", "settings": "read-out: DAGLβ % inhibition (100 nM)"}}, "data": [{"smiles": "O=C(N1CCCCC1Cc1ccccc1)n1cc(-c2ccc(-c3ccccc3)cc2)nn1", "note": "(stereo not drawn) [compound 11, KT109]", "values": [{"measurement": "inhibition at 0.1 µM", "setting": "[1]", "result": 60.8, "unit": "%"}]}, {"smiles": "Cc1cc(C)n2c1C=C1C=CC(CCC(=O)NCCCCCN(CCc3ccccc3)C(=O)n3cc(-c4ccc(OC(F)(F)F)cc4)nn3)=[N+]1[B-]2(F)F", "note": "[compound 38, HT-01]", "values": [{"measurement": "inhibition at 20 µM", "setting": "[2]", "result": "> 80", "unit": "%"}]}, {"smiles": "COc1ccccc1-c1ccc(-c2cn(C(=O)N3CCCCC3Cc3ccccc3)nn2)cc1", "note": "(racemic) [compound 27, KT172]", "values": [{"measurement": "inhibition at 0.1 µM", "setting": "[3]", "result": 55.3, "unit": "%"}]}]}
